Experimental data: ChEMBL document CHEMBL1201862, “PubChem BioAssay data set” (2004)
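Assay format: 96-well plates, 48-hour exposure. GI50 marks 50% less growth.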 The source made the active and inactive calls. No stated cut-off is given here; in the data, active = GI50 up to about 1.1 µM and inactive = higher.

What was measured:
Test in all cases: inhibition of tumour cell growth, NCI panel, 48 h
HCC 2998 = test system: HCC 2998
UACC-62 = test system: UACC-62
LOX IMVI = test system: LOX IMVI
K562 = test system: K562
CCRF-CEM = test system: CCRF-CEM
U-251 = test system: U-251
SF-539 = test system: SF-539
A549 = test system: A549
SK-MEL-5 = test system: SK-MEL-5
SF-268 = test system: SF-268
KM12 = test system: KM12
NCI-H226 = test system: NCI-H226
SNB-19 = test system: SNB-19
UO-31 = test system: UO-31
M14 = test system: M14
HT-29 = test system: HT-29
SW-620 = test system: SW-620
HOP-62 = test system: HOP-62

Measured: GI50

COC(=O)C(=O)C(C(=O)C(=O)Nc1ccccc1C(N)=O)c1nc2ccc([N+](=O)[O-])cc2nc1O (stereo unspecified)
inactive: HCC 2998 > 100 µM | UACC-62 > 100 µM | LOX IMVI > 100 µM | K562 > 100 µM | CCRF-CEM > 100 µM | U-251 > 100 µM | SF-539 > 100 µM | A549 > 100 µM | SK-MEL-5 > 100 µM | SF-268 > 100 µM | KM12 > 100 µM | NCI-H226 > 100 µM | SNB-19 > 100 µM | UO-31 > 100 µM | M14 > 100 µM | HT-29 > 100 µM | SW-620 > 100 µM | HOP-62 > 100 µM

CCCN1C(=O)CNC(=O)c2[nH]cnc21
inactive: HCC 2998 > 100 µM | UACC-62 48.3 µM | LOX IMVI > 100 µM | K562 > 100 µM | CCRF-CEM > 100 µM | U-251 > 100 µM | SF-539 > 100 µM | A549 > 100 µM | SK-MEL-5 > 100 µM | SF-268 > 100 µM | KM12 > 100 µM | NCI-H226 > 100 µM | SNB-19 > 100 µM | UO-31 > 100 µM | M14 > 100 µM | HT-29 > 100 µM | SW-620 > 100 µM | HOP-62 > 100 µM

CC(=O)OC1CC2C(C)(C)OC(=O)CC(OC(C)=O)[C@]2(C)C2CCC3(C)C(=CCC3c3ccoc3)[C@]12C (stereo partly specified)
inactive: HCC 2998 18.4 µM | UACC-62 22.2 µM | LOX IMVI 28.7 µM | K562 14 µM | CCRF-CEM 18.2 µM | U-251 37.6 µM | SF-539 26.8 µM | A549 19.4 µM | SK-MEL-5 21.4 µM | SF-268 21.1 µM | KM12 30.6 µM | NCI-H226 14.9 µM | SNB-19 14.3 µM | UO-31 23.9 µM | M14 18.9 µM | HT-29 15.7 µM | SW-620 32.1 µM | HOP-62 24 µM

C=CCn1cc(C(=O)NC(=O)NCCCCCOC(=O)CCCCCCCCCCC(=O)OCCCCCNC(=O)NC(=O)c2cn(CC=C)c(=O)n(C)c2=O)c(=O)n(C)c1=O
inactive: HCC 2998 > 100 µM | UACC-62 > 100 µM | LOX IMVI > 100 µM | K562 > 100 µM | CCRF-CEM > 100 µM | U-251 > 100 µM | SF-539 > 100 µM | A549 > 100 µM | SK-MEL-5 > 100 µM | SF-268 > 100 µM | KM12 > 100 µM | NCI-H226 > 100 µM | SNB-19 > 100 µM | UO-31 > 100 µM | M14 > 100 µM | HT-29 > 100 µM | SW-620 > 100 µM | HOP-62 > 100 µM

COc1cc(-c2nnc3n2NC=C(C(=O)O)S3)cc(OC)c1OC
inactive: HCC 2998 > 100 µM | UACC-62 > 93.5 µM | LOX IMVI > 100 µM | K562 > 43.1 µM | CCRF-CEM 29.7 µM | U-251 > 68.2 µM | SF-539 > 42.8 µM | A549 > 100 µM | SK-MEL-5 > 100 µM | SF-268 > 76.9 µM | KM12 > 95.1 µM | NCI-H226 > 100 µM | SNB-19 > 100 µM | UO-31 > 100 µM | M14 > 81.3 µM | HT-29 > 100 µM | SW-620 > 39.5 µM | HOP-62 > 100 µM

CCOC(=O)Cc1nc2ccc3c(c2nc1O)C(=O)c1ccccc1C3=O
inactive: HCC 2998 46.7 µM | UACC-62 34.5 µM | LOX IMVI 25.5 µM | K562 32.4 µM | CCRF-CEM 1.95 µM | U-251 48.4 µM | SF-539 76.4 µM | A549 34.4 µM | SK-MEL-5 26.1 µM | SF-268 38.5 µM | KM12 14.7 µM | NCI-H226 80.7 µM | SNB-19 > 100 µM | UO-31 35.4 µM | M14 77.3 µM | HT-29 > 100 µM | SW-620 56 µM | HOP-62 28.2 µM

Cc1ccccc1-n1c(C)nc(-c2ccccc2)cc1=O
inactive: HCC 2998 > 100 µM | UACC-62 > 100 µM | LOX IMVI > 100 µM | K562 > 100 µM | CCRF-CEM > 100 µM | U-251 > 100 µM | SF-539 > 100 µM | A549 > 100 µM | SK-MEL-5 > 100 µM | SF-268 > 100 µM | KM12 > 100 µM | NCI-H226 > 100 µM | SNB-19 > 100 µM | UO-31 > 100 µM | M14 > 100 µM | HT-29 > 100 µM | SW-620 > 100 µM | HOP-62 > 100 µM
